# System: TEAD-YAP/TAZ interaction
# Assay: CTGF ELISA assay
# Assay type: cell-based, human
# Settings: CTGF in culture supernatant of NCI-H2052 cells, 24 hours with compound
# Experimental: The detection of CTGF expression level can assessed the binding activity of TEAD-YAP/TAZ transcription factor, and the CTGF expression level was quantified by SimpleStep ELISA® kit (Abcam, ab261851).
# NCI-H2052 cells (Purchased from ATCC) were cultured in RPMI 1640 medium, adding 10% FBS and 1% Penicillin-Streptomycin Solution and 1 mM Sodium pyruvate. The day before compounds treatment, the cultured cells were washed with PBS and digested with trypsin, then centrifuged and collected. Discarded the supernatant, the cells were resuspended in fresh complete medium. After cells counted, cells were seeded at 6500 cells/well in 96-well plates. And then cells were cultured overnight in incubator (37° C., 5% CO2).
# After the cells were cultured overnight, discarded the culture supernatant, then washed with PBS solution, cells were incubated with 200 μl medium containing compounds in each well. The starting concentration was 10 μM and serial dilution in DMSO and medium were performed to achieve a final DMSO concentration of 0.5% (Final compounds concentration were 10000, 2500, 625, 156, 39.1, 9.77, 2.44, 0.61 nM, 0 nM (0.5% DMSO), The cells were then cultured in incubator (37° C., 5% CO2). Cultured for 24 hours, the cells were centrifuged at 1500 RPM at 4° C. for 5 minutes, and then 50 μl of culture supernatant were tested for CTGF ELISA assay.
# The Human CTGF SimpleStep ELISA® Kit (Abcam, ab261851) employs an affinity tag labeled capture antibody and a reporter conjugated detector antibody which immunocapture the sample analyte in solution. This entire complex (capture antibody/analyte/detector antibody) is in turn immobilized via immunoaffinity of an anti-tag antibody coating the well. To perform the assay, samples or standards are added to the wells, followed by the antibody mix (capture antibody/detector antibody). After incubation, the wells are washed to remove unbound material. TMB Development Solution is added and during incubation is catalyzed by HRP, generating blue coloration. This reaction is then stopped by addition of Stop Solution completing any color change from blue to yellow. Signal is generated proportionally to the amount of bound analyte and the intensity is measured at 450 nm. Firstly, prepare all reagents, samples, and standards as instructed. Add 50 μl standard or sample to appropriate wells. Then add 50 μl of the Antibody Cocktail to each well. Seal the plate and incubate for 1 hour at room temperature on a plate shaker. Wash each well with Wash Buffer three times. Add 100 μl of TMB Development Solution to each well and incubate for 10 minutes in the dark on a plate shaker. Add 100 μl of Stop Solution to each well. Shake plate on a plate shaker for 1 minute to mix. Record the OD at 450 nm. Determine the concentration of the target protein in the sample by the standard curve.
# EC50 value was determined by fitting the concentration response curves using GraphPad Prism software. The compounds of the present invention were tested for their capacity to inhibit TEAD-YAP/TAZ interaction according to the fitted curves of CTGF concentration response to compounds.
row,SMILES,EC50 [nM]
1,"C=CC(=O)N1CCC(n2nc(-c3ccc(C(F)(F)F)cc3)c3nc[nH]c(=O)c32)C1 (stereo not shown) [Compound 2, 1-(1-acryloylpyrrolidin-3-yl)-3-(4-(trifluoromethyl)phenyl)-1,6-dihydro-7H-pyrazolo[4,3-d]pyrimidin-7-one]",25
2,"C=CC(=O)N1CC(n2nc(-c3ccc(C(F)(F)F)cc3)c3nccnc32)C1 [Compound 161, 1-(3-(3-(4-(trifluoromethyl)phen-yl)-1H-pyrazolo[3,4-b]pyrazin-1-yl)azetidin-1-yl)prop-2-en-1-one]",3
3,"C=C(F)C(=O)N1CC(n2c(=O)n(-c3ccc(C(F)(F)F)cc3)c3cccnc32)C1 [Compound 230, 3-(1-(2 fluoroacryloyl)azetidin-3 yl)-1-(4-(trifluoromethyl)phenyl)-1,3-dihydro-2H-imidazo[4,5-b]pyridin-2-one]",6.4
4,"C=C(F)C(=O)NCC(C=O)n1nc(-c2ccc(C(F)(F)F)cc2)c2cccnc21 (stereo not shown) [Com. EX.1, 2-fluoro-N-(3-oxo-2-(3-(4-(trifluoromethyl)phenyl)-1H-pyrazolo[3,4-b]pyridin-1-yl)propyl)acrylamide, reference compound]",> 10000
5,"C=C(F)C(=O)N1CC(n2c(=O)n(-c3ccc(C(F)(F)F)cc3)c3cc(C(F)(F)F)cnc32)C1 [Compound 245, 3-(1-(2-fluoroacryloyl)azetidin-3-yl)-6-(trifluoromethyl)-1-(4-(trifluoromethyl)phenyl)-1,3-dihydro-2H-imidazo[4,5-b]pyridin-2-one]",32
6,"C=C(F)C(=O)N1CCC(n2nc(-c3ccc(C(F)(F)F)cc3)c3cc(OC)cnc32)C1 (stereo not shown) [Compound 95, 2-fluoro-1-(3-(5-methoxy-3-(4-(trifluoromethyl)phenyl)-1H-pyrazolo[3,4-b]pyridin-1-yl)-pyrrolidin-1-yl)prop-2-en-1-one]",30
7,"C=CC(=O)N1CCC(n2nc(-c3ccc(C(F)(F)F)cc3)c3cccc(Cl)c32)C1 (stereo not shown) [Compound 45, 1-(3-(7-chloro-3-(4-(trifluoro-methyl)phenyl)-1H-indazol-1-yl)-pyrrolidin-1-yl)prop-2-en-1-one]",15
8,"C=C(F)C(=O)N1CC(Nc2nc(-c3ccc(C(F)(F)F)cc3)nc3ccccc23)C1 [Compound 255, 2 fluoro-1-(3-((2-(4-(trifluoromethyl)phenyl)quinazolin-4 yl)amino)azetidin-1 yl)prop-2-en-1-one]",44
9,"C=C(F)C(=O)N1CC(n2nc(-c3ccc(C(F)(F)F)cc3)c3cccnc32)C1C (stereo not shown) [Compound 9, 2 fluoro-1-(2-methyl-3-(3-(4-(trifluoromethyl)phenyl)-1H-pyrazolo[3,4-b]pyridin-1 yl)azetidin-1 yl)prop-2-en-1-one]",1.4
10,"C=C(F)C(=O)N1CC(n2nc(-c3ccc(C(C)C)cc3)c3cccnc32)C1 [Compound 171, 2-fluoro-1-(3-(3-(4-isopropyl-phenyl)-1H-pyrazolo[3,4-b]-pyridin-1-yl)azetidin-1-yl)prop-2-en-1-one]",148
11,"C=C(F)C(=O)N1CC(n2nc(-c3ccc(C(F)(F)F)cc3)c3ccc(OC)nc32)C1 [Compound 221, 2-fluoro-1-(3-(6-methoxy-3-(4-(trifluoromethyl)phenyl)-1H-pyrazolo[3,4-b]pyridin-1-yl)-azetidin-1-yl)prop-2-en-1-one]",0.9
12,"C=C(F)C(=O)N1CC(n2nc(-c3ccc(C(F)(F)F)nc3)c3nccnc32)C1 [Compound 198, 2-fluoro-1-(3-(3-(6-(trifluoro-methyl)pyridin-3-yl)-1H-pyrazolo[3,4-b]pyrazin-1-yl)-azetidin-1-yl)prop-2-en-1-one]",0.9
13,"C=CC(=O)N1CCC(n2nc(-c3ccc(C(F)(F)F)cc3)c3cnccc32)C1 (stereo not shown) [Compound 23, 1-(3-(3-(4-(trifluoromethyl)phen-yl)-1H-pyrazolo[4,3-c]pyridin-1-yl)pyrrolidin-1-yl)prop-2-en-1-one]",16
14,"C#CC(=O)N1CCC(n2nc(-c3ccc(C(F)(F)F)cc3)c3ccccc32)C1 (stereo not shown) [Compound 57, 1-(3-(3-(4-(trifluoromethyl)phen-yl)-1H-indazol-1-yl)pyrrolidin-1-yl)prop-2-yn-1-one]",82
15,"CC#CC(=O)N1CCC(n2nc(-c3ccc(C(F)(F)F)cc3)c3ccccc32)C1 (stereo not shown) [Compound 55, 1-(3-(3-(4-(trifluoromethyl)phen-yl)-1H-indazol-1-yl)pyrrolidin-1-yl)but-2-yn-1-one]",16
16,"C=CC(=O)N1CCC(n2nc(-c3ccc(C(F)(F)F)cc3)c3cccc(C#N)c32)C1 (stereo not shown) [Compound 48, 1-(1-acryloylpyrrolidin-3-yl)-3-(4-(trifluoromethyl)phenyl)-1H-indazole-7-carbonitrile]",15
17,"C=CC(=O)N1CCC(Cn2nc(-c3ccc(C(F)(F)F)cc3)c3ccccc32)C1 (stereo not shown) [Compound 34, 1-(3-((3-(4-(trifluoromethyl)phen-yl)-1H-indazol-1-yl)methyl)-pyrrolidin-1-yl)prop-2-en-1-one]",137
18,"C=C(F)C(=O)N1CC(n2nc(-c3ccc(C(F)(F)F)cc3)c3c2CCOC3)C1 [Compound 208, 2-fluoro-1-(3-(3-(4-(trifluoro-methyl)phenyl)-6,7-dihydro-pyrano-[4,3-c]pyrazol-1(4H)-yl)-azetidin-1-yl)prop-2-en-1-one]",4.1
19,"C=CC(=O)N1CCC(n2nc(-c3ccc(C(F)(F)F)cc3)c3cccc(C)c32)C1 (stereo not shown) [Compound 39, 1-(3-(7-methyl-3-(4-(trifluoro-methyl)phenyl)-1H-indazol-1-yl)pyrrolidin-1-yl)prop-2-en-1-one]",14
20,"C/C=C/C(=O)N1CCC(n2nc(-c3ccc(C(F)(F)F)cc3)c3ccccc32)C1 (stereo not shown) [Compound 56, (E)-1-(3-(3-(4-(trifluoromethyl)-phenyl)-1H-indazol-1-yl)pyrrol-idin-1-yl)but-2-en-1-one]",70
21,"C=C(F)C(=O)N1CC(n2nc(-c3ccc(C(F)(F)F)cc3)c3ccc(C)nc32)C1 [Compound 186, 2-fluoro-1-(3-(6-methyl-3-(4-(trifluoromethyl)phenyl)-1H-pyrazolo[3,4-b]pyridin-1-yl)-azetidin-1-yl)prop-2-en-1-one]",2
22,"C=CC(=O)N1CC(n2nc(-c3ccc(C(F)(F)F)cc3F)c3ncccc32)C1 [Compound 129, 1-(3-(3-(2-fluoro-4-(trifluoro-methyl)phenyl)-1H-pyrazolo[4,3-b]pyridin-1-yl)azetidin-1-yl)prop-2-en-1-one]",8
23,"C=C(F)C(=O)N1CC(n2nc(-c3ccc(C(F)(F)F)cc3)c3c2CCCC3)C1 [Compound 217, 2-fluoro-1-(3-(3-(4-(trifluoro-methyl)phenyl)-4,5,6,7-tetra-hydro-1H-indazol-1-yl)azetidin-1-yl)prop-2-en-1-one]",5.7
24,"C=CC(=O)N1CCC(n2nc(-c3ccc(C(F)(F)F)cc3)c3cccc(F)c32)C1 (stereo not shown) [Compound 70, 1-(3-(7-fluoro-3-(4-(trifluoro-methyl)phenyl)-1H-indazol-1-yl)-pyrrolidin-1-yl)prop-2-en-1-one]",34
25,"C=CC(=O)N1CC(n2c(=N)n(-c3ccc(C(F)(F)F)cc3)c3ccccc32)C1 [Compound 231, 1-(3-(2-imino-3-(4-(trifluoromethyl)phenyl)-2,3-dihydro-1H-benzo[d]imidazol-1 yl)azetidin-1 yl)prop-2-en-1-one]",360
26,"C=C(F)C(=O)N1CC(n2nc(-c3ccc(C(F)(F)F)cc3)c3cc(F)cnc32)C1 [Compound 202, 2-fluoro-1-(3-(5-fluoro-3-(4-(trifluoromethyl)phenyl)-1H-pyrazolo[3,4-b]pyridin-1-yl)-azetidin-1-yl)prop-2-en-1-one]",8.1
27,"C=C(F)C(=O)N1CCC(n2nc(-c3ccc(C(F)(F)F)cc3)c3ncccc32)C1 (stereo not shown) [Compound 71, 2-fluoro-1-(3-(3-(4-(trifluoro-methyl)phenyl)-1H-pyrazolo[4,3-b]pyridin-1-yl)pyrrolidin-1-yl)-prop-2-en-1-one]",12
28,"C=CC(=O)N1CCC(n2nc(-c3ccc(C(F)(F)F)cc3)c3cccc(C(=O)OC)c32)C1 (stereo not shown) [Compound 78, methyl 1-(1-acryloylpyrrolidin-3-yl)-3-(4-(trifluoromethyl)phenyl)-1H-indazole-7-carboxylate]",21

# — patent US20230391779A1, “BICYCLIC COMPOUNDS, COMPOSITIONS AND USE THEREOF” (Betta Pharmaceuticals Co., Ltd., priority 2020, published 2023)
